For the experiment, the target named is CDK2 (human) (UniProt P24941). The experiment in a line: Enzyme Assay.

For orientation: IC50 means the concentration at which inhibition is half-maximal. Higher therefore signals weaker potency.

In the case of `COc1ccc(F)cc1C(=O)Nc1c[nH]nc1-c1nc(C(F)(F)F)c(C)[nH]1`, the IC50 is under 1 µM.

Molecule `COc1cccc(Cl)c1C(=O)Nc1c[nH]nc1-c1nc(C(F)(F)F)c(C)[nH]1` showed an IC50 of under 1 µM.

Regarding `Cc1[nH]c(-c2n[nH]cc2NC(=O)CC2CC2)nc1C(F)(F)F`, the IC50 is under 1 µM.

`Cc1[nH]c(-c2n[nH]cc2NC(=O)c2ccc3c(c2)OCC3)nc1C(F)(F)F` had an IC50 of under 1 µM.

`CCOc1ccccc1C(=O)Nc1c[nH]nc1-c1nc(C(F)(F)F)c(C)[nH]1`: the IC50 is under 1 µM.

Molecule `Cc1[nH]c(-c2n[nH]cc2NC(=O)c2onc3ccccc23)nc1C(F)(F)F` displayed an IC50 of under 1 µM.

For `Cc1[nH]c(-c2n[nH]cc2NC(=O)c2cccc3c2OCC3)nc1C(F)(F)F`, the IC50 was under 1 µM.

Regarding `Cc1[nH]c(-c2n[nH]cc2NC(=O)C(C#N)C2CC2)nc1C(F)(F)F` (stereo not drawn), the IC50 was under 1 µM.

Molecule `Cc1[nH]c(-c2n[nH]cc2NC(=O)c2c(F)cc(F)cc2F)nc1C(F)(F)F` had an IC50 of under 1 µM.

`Cc1[nH]c(-c2n[nH]cc2NC(=O)c2ccco2)nc1C(F)(F)F` returned an IC50 of under 1 µM.

Take `Cc1[nH]c(-c2n[nH]cc2NC(=O)c2cc(CN3CCOCC3)c(C)o2)nc1C(F)(F)F`: the IC50 is under 1 µM.

Take `Cc1cc(C(=O)Nc2c[nH]nc2-c2nc(C(F)(F)F)c(C)[nH]2)no1`: the IC50 is under 1 µM.

Molecule `COc1ccc(S(C)(=O)=O)cc1C(=O)Nc1c[nH]nc1-c1nc(C(F)(F)F)c(C)[nH]1` showed an IC50 of under 1 µM.

The values above are taken from the Kinase Knowledgebase extract (Sharma et al. 2016).
